Experimental data as given in the supplement of paper PMC10307832.

Columns and labels:
Assay in all cases: relative viability (nuclei count vs DMSO), 5 days (fraction); higher = more cells survive
H3255 = system: H3255
Method in brief: (§1)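 Five library-drug doses in √10 steps were combined with a fixed anchor-drug dose, or a single drug was given alone, by pin tool to lung cancer cell lines in 1536-well plates the day after seeding. Nuclei were stained and counted after 5 days. Relative viability is the nuclei count in treated wells over that in vehicle wells, taken as the median of duplicate plates.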

NCI-H2009 = system: NCI-H2009
Method in brief: as §1

NCI-H727 = system: NCI-H727
Method in brief: as §1

NCI-H1993 = system: NCI-H1993
Method in brief: as §1

EPLC-272H = system: EPLC-272H
Method in brief: as §1

NCI-H322M = system: NCI-H322M
Method in brief: as §1

NCI-H1915 = system: NCI-H1915
Method in brief: as §1

LXF-289 = system: LXF-289
Method in brief: as §1

NCI-H2023 = system: NCI-H2023
Method in brief: as §1

SK-LU-1 = system: SK-LU-1
Method in brief: as §1

NCI-H647 = system: NCI-H647
Method in brief: as §1

SW 1573 = system: SW 1573
Method in brief: as §1

NCI-H2126 = system: NCI-H2126
Method in brief: as §1

NCI-H1734 = system: NCI-H1734
Method in brief: as §1

NCI-H2085 = system: NCI-H2085
Method in brief: as §1

PC-14 = system: PC-14
Method in brief: as §1

EMC-BAC-2 = system: EMC-BAC-2
Method in brief: as §1

NCI-H2347 = system: NCI-H2347
Method in brief: as §1

HOP-62 = system: HOP-62
Method in brief: as §1

NCI-H661 = system: NCI-H661
Method in brief: as §1

LCLC-97TM1 = system: LCLC-97TM1
Method in brief: as §1

NCI-H1563 = system: NCI-H1563
Method in brief: as §1

For `COc1cc2nccc(Oc3ccc(NC(=O)Nc4cc(C)on4)c(Cl)c3)c2cc1OC` [Tivozanib] + C[C@]1(O)C[C@@H](c2nc(-c3ccc4ccc(-c5ccccc5)nc4c3)c3c(N)nccn32)C1 [Linsitinib] (partner 1 µM), the relative viability (H3255; first compound 0.005 µM) was 0.965, the relative viability (H3255; first compound 0.01581 µM) was 0.933 and the relative viability (H3255; first compound 0.05 µM) was 1.09. For the same molecule, the relative viability (H3255; first compound 0.1581 µM) was 1.05, the relative viability (H3255; first compound 0.5 µM) was 0.891 and the relative viability (NCI-H2009; first compound 0.005 µM) was 1.15. For the same molecule, the relative viability (NCI-H2009; first compound 0.01581 µM) was 1.19, the relative viability (NCI-H2009; first compound 0.05 µM) was 1.23 and the relative viability (NCI-H2009; first compound 0.1581 µM) was 1.25. For the same molecule, the relative viability (NCI-H2009; first compound 0.5 µM) was 1.23, the relative viability (NCI-H727; first compound 0.005 µM) was 0.304 and the relative viability (NCI-H727; first compound 0.01581 µM) was 0.256. The relative viability (NCI-H727; first compound 0.05 µM) was 0.244, the relative viability (NCI-H727; first compound 0.5 µM) was 0.357 and the relative viability (NCI-H1993; first compound 0.005 µM) was 0.698. For the same molecule, the relative viability (NCI-H1993; first compound 0.01581 µM) was 0.777, the relative viability (NCI-H1993; first compound 0.05 µM) was 0.79 and the relative viability (NCI-H1993; first compound 0.1581 µM) was 0.638. For the same molecule, the relative viability (NCI-H1993; first compound 0.5 µM) was 0.758, the relative viability (EPLC-272H; first compound 0.005 µM) was 1.1 and the relative viability (EPLC-272H; first compound 0.01581 µM) was 1.14. For the same molecule, the relative viability (EPLC-272H; first compound 0.05 µM) was 1.17, the relative viability (EPLC-272H; first compound 0.1581 µM) was 0.955 and the relative viability (EPLC-272H; first compound 0.5 µM) was 1.12. The relative viability (NCI-H322M; first compound 0.005 µM) was 0.942, the relative viability (NCI-H322M; first compound 0.01581 µM) was 0.961 and the relative viability (NCI-H322M; first compound 0.05 µM) was 0.989. It also gave a relative viability (NCI-H322M; first compound 0.1581 µM) of 0.92, a relative viability (NCI-H322M; first compound 0.5 µM) of 0.825 and a relative viability (NCI-H1915; first compound 0.005 µM) of 1.08. The relative viability (NCI-H1915; first compound 0.01581 µM) was 1.14, the relative viability (NCI-H1915; first compound 0.05 µM) was 1.12 and the relative viability (NCI-H1915; first compound 0.1581 µM) was 1.07. For the same molecule, the relative viability (NCI-H1915; first compound 0.5 µM) was 1.05, the relative viability (LXF-289; first compound 0.005 µM) was 0.974 and the relative viability (LXF-289; first compound 0.01581 µM) was 0.929. The relative viability (LXF-289; first compound 0.05 µM) was 0.945, the relative viability (LXF-289; first compound 0.1581 µM) was 1.02 and the relative viability (LXF-289; first compound 0.5 µM) was 0.983. The relative viability (NCI-H2023; first compound 0.005 µM) was 0.612, the relative viability (NCI-H2023; first compound 0.01581 µM) was 0.669 and the relative viability (NCI-H2023; first compound 0.05 µM) was 0.761. The relative viability (NCI-H2023; first compound 0.1581 µM) was 0.671, the relative viability (NCI-H2023; first compound 0.5 µM) was 0.715 and the relative viability (SK-LU-1; first compound 0.005 µM) was 0.979. For the same molecule, the relative viability (SK-LU-1; first compound 0.01581 µM) was 1.08, the relative viability (SK-LU-1; first compound 0.05 µM) was 1.34 and the relative viability (SK-LU-1; first compound 0.1581 µM) was 0.813. For the same molecule, the relative viability (SK-LU-1; first compound 0.5 µM) was 0.938, the relative viability (NCI-H647; first compound 0.005 µM) was 1.08 and the relative viability (NCI-H647; first compound 0.01581 µM) was 1.09. It also gave a relative viability (NCI-H647; first compound 0.05 µM) of 1.26, a relative viability (NCI-H647; first compound 0.1581 µM) of 1.21 and a relative viability (NCI-H647; first compound 0.5 µM) of 1.18. The relative viability (SW 1573; first compound 0.005 µM) was 0.896, the relative viability (SW 1573; first compound 0.01581 µM) was 0.826 and the relative viability (SW 1573; first compound 0.05 µM) was 0.921. It also gave a relative viability (SW 1573; first compound 0.1581 µM) of 0.819, a relative viability (SW 1573; first compound 0.5 µM) of 0.86 and a relative viability (NCI-H2126; first compound 0.005 µM) of 0.651. For the same molecule, the relative viability (NCI-H2126; first compound 0.01581 µM) was 0.697, the relative viability (NCI-H2126; first compound 0.05 µM) was 0.734 and the relative viability (NCI-H2126; first compound 0.1581 µM) was 0.52. The relative viability (NCI-H2126; first compound 0.5 µM) was 0.747, the relative viability (NCI-H1734; first compound 0.005 µM) was 0.847 and the relative viability (NCI-H1734; first compound 0.01581 µM) was 0.795. The relative viability (NCI-H1734; first compound 0.05 µM) was 1.03, the relative viability (NCI-H1734; first compound 0.1581 µM) was 0.674 and the relative viability (NCI-H1734; first compound 0.5 µM) was 0.858. The relative viability (NCI-H2085; first compound 0.005 µM) was 0.917, the relative viability (NCI-H2085; first compound 0.01581 µM) was 0.854 and the relative viability (NCI-H2085; first compound 0.05 µM) was 1.06. For the same molecule, the relative viability (NCI-H2085; first compound 0.1581 µM) was 0.781, the relative viability (NCI-H2085; first compound 0.5 µM) was 0.877 and the relative viability (PC-14; first compound 0.005 µM) was 0.939. The relative viability (PC-14; first compound 0.01581 µM) was 0.957, the relative viability (PC-14; first compound 0.05 µM) was 1.06 and the relative viability (PC-14; first compound 0.1581 µM) was 1.01. It also gave a relative viability (PC-14; first compound 0.5 µM) of 1.01, a relative viability (EMC-BAC-2; first compound 0.005 µM) of 0.847 and a relative viability (EMC-BAC-2; first compound 0.01581 µM) of 0.787. It also gave a relative viability (EMC-BAC-2; first compound 0.05 µM) of 0.844, a relative viability (EMC-BAC-2; first compound 0.1581 µM) of 0.782 and a relative viability (EMC-BAC-2; first compound 0.5 µM) of 0.821. The relative viability (NCI-H2347; first compound 0.005 µM) was 0.711, the relative viability (NCI-H2347; first compound 0.01581 µM) was 0.897 and the relative viability (NCI-H2347; first compound 0.05 µM) was 0.966. The relative viability (NCI-H2347; first compound 0.1581 µM) was 1.1, the relative viability (NCI-H2347; first compound 0.5 µM) was 0.92 and the relative viability (HOP-62; first compound 0.005 µM) was 0.87. For the same molecule, the relative viability (HOP-62; first compound 0.01581 µM) was 0.929, the relative viability (HOP-62; first compound 0.05 µM) was 1.16 and the relative viability (HOP-62; first compound 0.1581 µM) was 0.932. It also gave a relative viability (HOP-62; first compound 0.5 µM) of 0.988, a relative viability (NCI-H661; first compound 0.005 µM) of 0.525 and a relative viability (NCI-H661; first compound 0.01581 µM) of 0.564. For the same molecule, the relative viability (NCI-H661; first compound 0.05 µM) was 0.498, the relative viability (NCI-H661; first compound 0.1581 µM) was 0.707 and the relative viability (NCI-H661; first compound 0.5 µM) was 0.652. It also gave a relative viability (LCLC-97TM1; first compound 0.005 µM) of 0.154, a relative viability (LCLC-97TM1; first compound 0.01581 µM) of 0.179 and a relative viability (LCLC-97TM1; first compound 0.1581 µM) of 0.187. The relative viability (LCLC-97TM1; first compound 0.5 µM) was 0.178, the relative viability (NCI-H1563; first compound 0.005 µM) was 1.19 and the relative viability (NCI-H1563; first compound 0.01581 µM) was 1.32. It also gave a relative viability (NCI-H1563; first compound 0.05 µM) of 1.24, a relative viability (NCI-H1563; first compound 0.1581 µM) of 1.12 and a relative viability (NCI-H1563; first compound 0.5 µM) of 1.22.
